Results as given in PubChem BioAssay (NCI).
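Test compounds were applied to cells in 96-well plates for 48 hours at 5 doses. TGI marks complete inhibition of growth.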

Tests used:
Experiment in all cases: inhibition of tumour cell growth, NCI panel, 48 h
SNB-75 CNS = test system: SNB-75 CNS
SK-MEL-28 melanoma = test system: SK-MEL-28 melanoma
SF-539 CNS = test system: SF-539 CNS
OVCAR-5 ovarian = test system: OVCAR-5 ovarian
CCRF-CEM leukemia = test system: CCRF-CEM leukemia
DU-145 prostate = test system: DU-145 prostate
U251 CNS = test system: U251 CNS
SK-MEL-5 melanoma = test system: SK-MEL-5 melanoma
786-0 renal = test system: 786-0 renal
SN12C renal = test system: SN12C renal
SW-620 colon = test system: SW-620 colon
SK-MEL-2 melanoma = test system: SK-MEL-2 melanoma
OVCAR-3 ovarian = test system: OVCAR-3 ovarian
SF-268 CNS = test system: SF-268 CNS
K-562 leukemia = test system: K-562 leukemia
M14 melanoma = test system: M14 melanoma
A549 NSCLC = test system: A549 NSCLC
SNB-19 CNS = test system: SNB-19 CNS
MDA-N = test system: MDA-N
NCI-H522 lung = test system: NCI-H522 lung
OVCAR-8 ovarian = test system: OVCAR-8 ovarian
OVCAR-4 ovarian = test system: OVCAR-4 ovarian
HCT-15 colon = test system: HCT-15 colon
COLO 205 colon = test system: COLO 205 colon
HL-60(TB) leukemia = test system: HL-60(TB) leukemia
A498 renal = test system: A498 renal
HOP-62 NSCLC = test system: HOP-62 NSCLC
MCF7 breast = test system: MCF7 breast
LOX IMVI melanoma = test system: LOX IMVI melanoma
BT-549 breast = test system: BT-549 breast
IGROV1 ovarian = test system: IGROV1 ovarian
UO-31 renal = test system: UO-31 renal
UACC-62 melanoma = test system: UACC-62 melanoma
SF-295 CNS = test system: SF-295 CNS
RXF 393 renal = test system: RXF 393 renal
HCT-116 colon = test system: HCT-116 colon
MALME-3M melanoma = test system: MALME-3M melanoma
HCC-2998 colon = test system: HCC-2998 colon
NCI-H23 lung = test system: NCI-H23 lung
NCI-H460 lung = test system: NCI-H460 lung
HOP-92 NSCLC = test system: HOP-92 NSCLC
MDA-MB-231 breast = test system: MDA-MB-231 breast
NCI-H226 lung = test system: NCI-H226 lung
SK-OV-3 ovarian = test system: SK-OV-3 ovarian
HS 578T breast = test system: HS 578T breast
PC-3 prostate = test system: PC-3 prostate
HT29 colon = test system: HT29 colon
MDA-MB-435 = test system: MDA-MB-435
UACC-257 melanoma = test system: UACC-257 melanoma
NCI/ADR-RES ovarian = test system: NCI/ADR-RES ovarian
EKVX NSCLC = test system: EKVX NSCLC
TK-10 renal = test system: TK-10 renal
ACHN renal = test system: ACHN renal
MOLT-4 leukemia = test system: MOLT-4 leukemia
RPMI-8226 leukemia = test system: RPMI-8226 leukemia
CAKI-1 renal = test system: CAKI-1 renal
KM12 colon = test system: KM12 colon
T-47D breast = test system: T-47D breast

With `CCCCn1c(=O)[nH]c2c(N)ncnc21` the TGI (SNB-75 CNS) was over 100 µM, the TGI (SK-MEL-28 melanoma) was over 100 µM and the TGI (SF-539 CNS) was over 100 µM. The TGI (OVCAR-5 ovarian) was over 100 µM, the TGI (CCRF-CEM leukemia) was over 100 µM and the TGI (DU-145 prostate) was over 100 µM. For the same compound, the TGI (U251 CNS) was over 100 µM, the TGI (SK-MEL-5 melanoma) was over 100 µM and the TGI (786-0 renal) was over 100 µM. The TGI (SN12C renal) was over 100 µM, the TGI (SW-620 colon) was over 100 µM and the TGI (SK-MEL-2 melanoma) was over 100 µM. The TGI (OVCAR-3 ovarian) was over 100 µM, the TGI (SF-268 CNS) was over 100 µM and the TGI (K-562 leukemia) was over 100 µM. It also gave a TGI (M14 melanoma) of over 100 µM, a TGI (A549 NSCLC) of over 100 µM and a TGI (SNB-19 CNS) of over 100 µM. The TGI (MDA-N) was over 100 µM, the TGI (NCI-H522 lung) was over 100 µM and the TGI (OVCAR-8 ovarian) was over 100 µM. It also gave a TGI (OVCAR-4 ovarian) of over 100 µM, a TGI (HCT-15 colon) of over 100 µM and a TGI (COLO 205 colon) of over 100 µM. The TGI (HL-60(TB) leukemia) was over 100 µM, the TGI (A498 renal) was over 100 µM and the TGI (HOP-62 NSCLC) was over 100 µM. It also gave a TGI (MCF7 breast) of over 100 µM, a TGI (LOX IMVI melanoma) of over 100 µM and a TGI (BT-549 breast) of over 100 µM. The TGI (IGROV1 ovarian) was over 100 µM, the TGI (UO-31 renal) was over 100 µM and the TGI (UACC-62 melanoma) was over 100 µM. For the same compound, the TGI (SF-295 CNS) was over 100 µM, the TGI (RXF 393 renal) was over 100 µM and the TGI (HCT-116 colon) was over 100 µM. It also gave a TGI (MALME-3M melanoma) of over 100 µM, a TGI (HCC-2998 colon) of over 100 µM and a TGI (NCI-H23 lung) of over 100 µM. It also gave a TGI (NCI-H460 lung) of over 100 µM, a TGI (HOP-92 NSCLC) of over 100 µM and a TGI (MDA-MB-231 breast) of over 100 µM. For the same compound, the TGI (NCI-H226 lung) was over 100 µM, the TGI (SK-OV-3 ovarian) was over 100 µM and the TGI (HS 578T breast) was over 100 µM. It also gave a TGI (PC-3 prostate) of over 100 µM, a TGI (HT29 colon) of over 100 µM and a TGI (MDA-MB-435) of over 100 µM. For the same compound, the TGI (UACC-257 melanoma) was over 100 µM, the TGI (NCI/ADR-RES ovarian) was over 100 µM and the TGI (EKVX NSCLC) was over 100 µM. For the same compound, the TGI (TK-10 renal) was over 100 µM and the TGI (ACHN renal) was over 100 µM.

Compound `CC1=C(C)C(=O)OC(C(C)(O)C2(O)CC3OC34C3CC(O)C56OC5C=CC(=O)C6(C)C3CCC42C)C1` (stereo unspecified) has a TGI (SNB-75 CNS) of 20.3 µM, a TGI (SK-MEL-28 melanoma) of 4.24 µM and a TGI (SF-539 CNS) of 6.39 µM. For the same compound, the TGI (OVCAR-5 ovarian) was 10.4 µM, the TGI (CCRF-CEM leukemia) was over 22.2 µM and the TGI (DU-145 prostate) was 15.8 µM. It also gave a TGI (U251 CNS) of 7.34 µM, a TGI (SK-MEL-5 melanoma) of over 24.1 µM and a TGI (SN12C renal) of 14.4 µM. For the same compound, the TGI (SK-MEL-2 melanoma) was 10.8 µM, the TGI (OVCAR-3 ovarian) was 6.23 µM and the TGI (MOLT-4 leukemia) was 4.49 µM. For the same compound, the TGI (RPMI-8226 leukemia) was 5.34 µM, the TGI (SF-268 CNS) was 7.96 µM and the TGI (K-562 leukemia) was over 100 µM. For the same compound, the TGI (M14 melanoma) was 12.6 µM, the TGI (A549 NSCLC) was 15.5 µM and the TGI (SNB-19 CNS) was 19.9 µM. The TGI (MDA-N) was 15.5 µM, the TGI (NCI-H522 lung) was 1.97 µM and the TGI (OVCAR-8 ovarian) was 6.67 µM. It also gave a TGI (OVCAR-4 ovarian) of 20.3 µM, a TGI (HCT-15 colon) of 3.85 µM and a TGI (COLO 205 colon) of over 29 µM. For the same compound, the TGI (A498 renal) was 7.81 µM, the TGI (HOP-62 NSCLC) was 35.4 µM and the TGI (MCF7 breast) was over 39.3 µM. For the same compound, the TGI (LOX IMVI melanoma) was 5.38 µM, the TGI (BT-549 breast) was 3.11 µM and the TGI (IGROV1 ovarian) was 6.09 µM. For the same compound, the TGI (UO-31 renal) was 2.62 µM, the TGI (UACC-62 melanoma) was 3.15 µM and the TGI (SF-295 CNS) was 15.2 µM. The TGI (RXF 393 renal) was 6.68 µM, the TGI (CAKI-1 renal) was 14.4 µM and the TGI (MALME-3M melanoma) was 3.53 µM. For the same compound, the TGI (HCC-2998 colon) was 2.73 µM, the TGI (NCI-H23 lung) was 8.64 µM and the TGI (NCI-H460 lung) was 4.23 µM. It also gave a TGI (HOP-92 NSCLC) of 12 µM, a TGI (KM12 colon) of 7.54 µM and a TGI (MDA-MB-231 breast) of 13.1 µM. For the same compound, the TGI (NCI-H226 lung) was 12.9 µM, the TGI (SK-OV-3 ovarian) was 14.2 µM and the TGI (HS 578T breast) was 16.3 µM. The TGI (PC-3 prostate) was 14.2 µM, the TGI (HT29 colon) was 4.2 µM and the TGI (T-47D breast) was over 43.3 µM. The TGI (MDA-MB-435) was 4.62 µM, the TGI (UACC-257 melanoma) was 4.7 µM and the TGI (EKVX NSCLC) was 10.4 µM. It also gave a TGI (TK-10 renal) of 7.43 µM and a TGI (ACHN renal) of 2.45 µM.
